{"source": "patent US20240239752A1", "about": "“BICYCLIC HETEROAROMATIC INHIBITORS OF KLK5” (BioCryst Pharmaceuticals, Inc., priority 2021, published 2024)", "data": [{"biological_target": "T1, recombinant human KLK5 (Homo sapiens, UniProt Q9Y337)", "T1 construct": "purchased Novoprotein or R&D Systems C415 or 1108-SE", "T1 sequence (Q9Y337 23-293)": "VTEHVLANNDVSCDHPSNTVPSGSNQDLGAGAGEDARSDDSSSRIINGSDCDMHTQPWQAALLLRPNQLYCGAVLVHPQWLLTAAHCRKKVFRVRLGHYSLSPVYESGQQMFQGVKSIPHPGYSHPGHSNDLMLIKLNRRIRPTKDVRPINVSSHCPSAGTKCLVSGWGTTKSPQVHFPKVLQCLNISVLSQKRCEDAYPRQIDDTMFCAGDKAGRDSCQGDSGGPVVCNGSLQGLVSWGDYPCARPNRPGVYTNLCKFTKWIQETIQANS", "test": "Kallikrein (KLK) 5 enzymatic assay (Boc-VPR-AMC fluorogenic substrate)", "type": "biochemical", "details": "recombinant human KLK5 0.1 μg/well, Boc-VPR-AMC 100 μM, pH 7.5, room temperature, 1% DMSO; tested a minimum of three times", "outline": "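Fluorogenic rate assay at pH 7.5 (0.1 M NaH2PO4, 1% DMSO, room temperature), run at least three times per compound. Compound was premixed with 0.1 μg/well recombinant human KLK5 before adding 100 μM Boc-VPR-AMC; AMC release was read at ex 380/em 460 nm, and IC50 derived from inhibition of rate vs DMSO control.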", "units": {"IC50": "nM"}, "values": [{"smiles": "CC(C)COC(=O)N1CC[C@H](n2nc(COc3ccccc3CC(=O)O)c3cc(-c4cccc5c(N)nccc45)ccc32)C1", "note": "[Compound 361b, (S)-2-(2-((5-(1-aminoisoquinolin-5-yl)-1-(1-(isobutoxycarbonyl)pyrrolidin-3-yl)-1H-indazol-3-yl)methoxy)phenyl)acetic acid]", "IC50": "< 1000"}, {"smiles": "CC(C)COC(=O)N1CC[C@@H](n2nc(COc3ccccc3CC(=O)O)c3cc(-c4ccc5ccnc(N)c5c4)ccc32)C1", "note": "[Compound 364c, (R)-2-(2-((5-(1-aminoisoquinolin-7-yl)-1-(1-(isobutoxycarbonyl)pyrrolidin-3-yl)-1H-indazol-3-yl)methoxy)phenyl)acetic acid]", "IC50": "< 1000"}, {"smiles": "CC(C)CCN1CC(n2nc(COc3ccccc3CC(=O)O)c3cc(-c4cccc5c(N)nccc45)ccc32)C1", "note": "[Compound 144c, 2-(2-((5-(1-aminoisoquinolin-5-yl)-1-(1-isopentylazetidin-3-yl)-1H-indazol-3-yl)methoxy)phenyl)acetic acid]", "IC50": "< 1000"}, {"smiles": "Nc1nccc2c(-c3ccc4c(c3)N(Cc3ccccc3CC(=O)O)CC4)cccc12", "note": "[Compound 285d, 2-(2-((6-(1-aminoisoquinolin-5-yl)indolin-1-yl)methyl)phenyl)acetic acid]", "IC50": "1000 to 10000"}, {"smiles": "Cc1cccc(OC2CC3(CCCCC3)c3ccc(-c4ccc5ccnc(N)c5c4)cc32)c1CC(=O)O", "note": "(stereo not shown) [Compound 378b, 2-(2-((5′-(1-aminoisoquinolin-7-yl)-2′,3′-dihydrospiro[cyclohexane-1,1′-inden]-3′-yl)oxy)-6-methylphenyl)acetic acid]", "IC50": "< 1000"}, {"smiles": "CC(C)N1CCN(C2CC(Oc3ccccc3CC(=O)O)c3cc(-c4cccc5c(N)nccc45)ccc32)CC1", "note": "(stereo not shown) [Compound 456g, 2-(2-((6-(1-aminoisoquinolin-5-yl)-3-(4-isopropylpiperazin-1-yl)-2,3-dihydro-1H-inden-1-yl)oxy)phenyl)acetic acid]", "IC50": "< 1000"}, {"smiles": "Nc1nccc2c(-c3ccc4c(c3)[C@H](Oc3cc(F)ccc3CC(=O)O)CC4)cccc12", "note": "[Compound 422b, (R)-2-(2-((6-(1-aminoisoquinolin-5-yl)-2,3-dihydro-1H-inden-1-yl)oxy)-4-fluorophenyl)acetic acid]", "IC50": "< 1000"}, {"smiles": "Cc1cccc(OC2CC3(CCOCC3)c3ccc(-c4cccc5c(N)nccc45)cc32)c1CC(=O)O", "note": "(stereo not shown) [Compound 353b, 2-(2-((5-(1-aminoisoquinolin-5-yl)-2,2′,3,3′,5′,6′-hexahydrospiro[indene-1,4′-pyran]-3-yl)oxy)-6-methylphenyl)acetic acid]", "IC50": "< 1000"}, {"smiles": "COC(=O)N1CCC2(CC1)CC(Oc1cccc(C)c1CC(=O)O)c1cc(-c3cccc4c(N)nccc34)ccc12", "note": "(stereo not shown) [Compound 382b, 2-(2-((5-(1-aminoisoquinolin-5-yl)-1′-(methoxycarbonyl)-2,3-dihydrospiro[indene-1,4′-piperidin]-3-yl)oxy)-6-methylphenyl)acetic acid]", "IC50": "< 1000"}, {"smiles": "Nc1nccc2c(-c3cnc4c(c3)c(COc3ccccc3CC(=O)O)nn4C3CCC3)cccc12", "note": "[Compound 198b, 2-(2-((5-(1-aminoisoquinolin-5-yl)-1-cyclobutyl-1H-pyrazolo[3,4-b]pyridin-3-yl)methoxy)phenyl)acetic acid]", "IC50": "< 1000"}, {"smiles": "CC(C)n1nc(COc2ccccc2CC(=O)O)c2cc(-c3ccnc4c(N)cccc34)ccc21", "note": "[Compound 53c, 2-(2-((5-(8-aminoquinolin-4-yl)-1-isopropyl-1H-indazol-3-yl)methoxy)phenyl)acetic acid]", "IC50": "> 10000"}, {"smiles": "Cc1cccc(CC(=O)O)c1OCc1nn(C2CCC2)c2ccc(-c3ccc4ccnc(N)c4c3)cc12", "note": "[Compound 159g, 2-(2-((5-(1-aminoisoquinolin-7-yl)-1-cyclobutyl-1H-indazol-3-yl)methoxy)-3-methylphenyl)acetic acid]", "IC50": "1000 to 10000"}, {"smiles": "CCC(=O)N1CCC2(CC1)CC(Oc1ccccc1CC(=O)O)c1cc(-c3ccc4ccnc(N)c4c3)ccc12", "note": "(stereo not shown) [Compound 386b, 2-(2-((5-(1-aminoisoquinolin-7-yl)-1′-propionyl-2,3-dihydrospiro[indene-1,4′-piperidin]-3-yl)oxy)phenyl)acetic acid]", "IC50": "< 1000"}, {"smiles": "N=C(N)c1cccc(-c2cc(OCc3ccccn3)c3occ(COc4ccccc4CC(=O)O)c3c2)c1", "note": "[Compound 227i, 2-(2-((5-(3-carbamimidoylphenyl)-7-(pyridin-2-ylmethoxy)benzofuran-3-yl)methoxy)phenyl)acetic acid]", "IC50": "< 1000"}, {"smiles": "COC(=O)N1CCC2(CC1)C[C@@H](Oc1ccccc1CC(=O)O)c1cc(-c3ccc4ccnc(N)c4c3)ccc12", "note": "[Compound 399b, (R)-2-(2-((5-(1-aminoisoquinolin-7-yl)-1′-(methoxycarbonyl)-2,3-dihydrospiro[indene-1,4′-piperidin]-3-yl)oxy)phenyl)acetic acid]", "IC50": "< 1000"}, {"smiles": "COc1ccc(CC(=O)O)c(OCc2coc3c(OC)cc(-c4ccc5ccnc(N)c5c4)cc23)c1", "note": "[Compound 234c, 2-(2-((5-(1-aminoisoquinolin-7-yl)-7-methoxybenzofuran-3-yl)methoxy)-4-methoxyphenyl)acetic acid]", "IC50": "> 10000"}, {"smiles": "CC(C)COC(=O)N1CCC2(CC1)CC(Oc1ccccc1CC(=O)O)c1cc(-c3cccc4c(N)nccc34)ccc12", "note": "(stereo not shown) [Compound 390b, 2-(2-((5-(1-aminoisoquinolin-5-yl)-1′-(isobutoxycarbonyl)-2,3-dihydrospiro[indene-1,4′-piperidin]-3-yl)oxy)phenyl)acetic acid]", "IC50": "< 1000"}, {"smiles": "CC(C)n1nc(COc2ccccc2CC(=O)O)c2cc(-c3cccc(-c4nn[nH]n4)c3)ccc21", "note": "[Compound 47c, 2-(2-((5-(3-(2H-tetrazol-5-yl)phenyl)-1-isopropyl-1H-indazol-3-yl)methoxy)phenyl)acetic acid]", "IC50": "> 10000"}, {"smiles": "Nc1nccc2c(-c3ccc4c(c3)c(COc3cccc(C5CC5)c3CC(=O)O)nn4C3CCOC3)cccc12", "note": "(stereo not shown) [Compound 291b, 2-(2-((5-(1-aminoisoquinolin-5-yl)-1-(tetrahydrofuran-3-yl)-1H-indazol-3-yl)methoxy)-6-cyclopropylphenyl)acetic acid]", "IC50": "< 1000"}, {"smiles": "COc1cnc(N)c2cc(-c3ccc4c(c3)c(COc3ccccc3CC(=O)O)nn4C(C)C)ccc12", "note": "[Compound 74d, 2-(2-((5-(1-amino-4-methoxyisoquinolin-7-yl)-1-isopropyl-1H-indazol-3-yl)methoxy)phenyl)acetic acid]", "IC50": "1000 to 10000"}, {"smiles": "COc1ccc(CC(=O)O)c(OCc2c3cc(-c4cccc5c(N)nccc45)ccc3nn2C2CCC2)c1", "note": "[Compound 19c, 2-(2-((5-(1-aminoisoquinolin-5-yl)-2-cyclobutyl-2H-indazol-3-yl)methoxy)-4-methoxyphenyl)acetic acid]", "IC50": "1000 to 10000"}, {"smiles": "CC(C)n1nc(COc2ccccc2CC(=O)O)c2cc(-c3ccc4c(N)nccc4c3)ccc21", "note": "[Compound 99c, 2-(2-((5-(1-aminoisoquinolin-6-yl)-1-isopropyl-1H-indazol-3-yl)methoxy)phenyl)acetic acid]", "IC50": "1000 to 10000"}, {"smiles": "CCS(=O)(=O)N1CC(n2nc3ccc(-c4cccc5c(N)nccc45)cc3c2COc2ccccc2CC(=O)O)C1", "note": "[Compound 130c, 2-(2-((5-(1-aminoisoquinolin-5-yl)-2-(1-(ethylsulfonyl)azetidin-3-yl)-2H-indazol-3-yl)methoxy)phenyl)acetic acid]", "IC50": "< 1000"}, {"smiles": "Nc1nccc2c(-c3ccc4c(c3)C(Oc3ccccc3CC(=O)O)CC43CCOCC3)cccc12", "note": "(stereo not shown) [Compound 351b, 2-(2-((5-(1-aminoisoquinolin-5-yl)-2,2′,3,3′,5′,6′-hexahydrospiro[indene-1,4′-pyran]-3-yl)oxy)phenyl)acetic acid]", "IC50": "< 1000"}, {"smiles": "CC(C)n1nc(COc2ccccc2CC(=O)O)c2cc(-c3ccc4oc(N)nc4c3)ccc21", "note": "[Compound 27c, 2-(2-((5-(2-aminobenzo[d]oxazol-5-yl)-1-isopropyl-1H-indazol-3-yl)methoxy)phenyl)acetic acid]", "IC50": "> 10000"}, {"smiles": "N=C(N)c1cccc(-c2ccc3c(c2)c(COc2ccccc2CC(=O)O)nn3C2CCCCC2)c1", "note": "[Compound 226b, 2-(2-((5-(3-carbamimidoylphenyl)-1-cyclohexyl-1H-indazol-3-yl)methoxy)phenyl)acetic acid]", "IC50": "< 1000"}, {"smiles": "COCCN1CC(Cn2nc(COc3ccccc3CC(=O)O)c3cc(-c4ccc5ccnc(N)c5c4)ccc32)C1", "note": "[Compound 306c, 2-(2-((5-(1-aminoisoquinolin-7-yl)-1-((1-(2-methoxyethyl)azetidin-3-yl)methyl)-1H-indazol-3-yl)methoxy)phenyl)acetic acid]", "IC50": "< 1000"}, {"smiles": "Nc1nccc2ccc(-c3ccc4c(c3)c(COc3ccccc3CC(=O)O)nn4CC3CNC3)cc12", "note": "[Compound 295c, 2-(2-((5-(1-aminoisoquinolin-7-yl)-1-(azetidin-3-ylmethyl)-1H-indazol-3-yl)methoxy)phenyl)acetic acid]", "IC50": "< 1000"}, {"smiles": "Cc1cccc(OC2CC3(CCN(C(=O)OC(C)C)CC3)c3ccc(-c4ccc5ccnc(N)c5c4)cc32)c1CC(=O)O", "note": "(stereo not shown) [Compound 383c, 2-(2-((5-(1-aminoisoquinolin-7-yl)-1′-(isopropoxycarbonyl)-2,3-dihydrospiro[indene-1,4′-piperidin]-3-yl)oxy)-6-methylphenyl)acetic acid]", "IC50": "< 1000"}, {"smiles": "CC(C)n1nc(COc2ccccc2CC(=O)O)c2cc(-c3cccc4c3OCCC4N)ccc21", "note": "(stereo not shown) [Compound 213c, 2-(2-((5-(4-aminochroman-8-yl)-1-isopropyl-1H-indazol-3-yl)methoxy)phenyl)acetic acid]", "IC50": "> 10000"}, {"smiles": "CC(C)n1nc(COc2ccccc2CC(=O)O)c2cc(-c3cccc(-c4c[nH]nc4N)c3)ccc21", "note": "[Compound 45c, 2-(2-((5-(3-(3-amino-1H-pyrazol-4-yl)phenyl)-1-isopropyl-1H-indazol-3-yl)methoxy)phenyl)acetic acid]", "IC50": "> 10000"}]}]}
